Test results as given in patent US9085576B2 (AMGEN INC., priority 2013, dated 2015).

Columns and labels:
[1] = molecular target: Beta Secretase enzyme (BACE) (Homo sapiens (Human), UniProt P56817); test: In vitro enzymatic BACE FRET assay; assay type: biochemical; conditions: read-out: BACE1 Enzyme assay IC50
Protocol: In Vitro Enzymatic BACE FRET (Fluorescence Resonance Energy Transfer) Assay (Enzyme Assay Data in the Example Table I)
The assay buffer used in this screen is 0.05 M acetate, pH 4.2, 10% DMSO final, 100 uM genapol (which is a nonionic detergent, below its Critical Micelle Concentration). […] This assay is effectively started by the addition of FRET substrate (50 nM) and the combination is incubated for one hour. The FRET assay is terminated with by addition of Tris buffer, which raises the pH to neutrality, and the fluorescence is determined. The FRET substrate is a peptide with commercially available fluorophore and quencher, on opposite sides of the BACE cleavage site.

BACE = BACE (Homo sapiens (Human), UniProt P56817); test: In vitro BACE cell-based assay (Aβ40 in conditioned medium, sandwich ELISA)
Cathepsin D (Cat D) = Cathepsin D (Cat D) (Homo sapiens (Human), UniProt P07339); test: In vitro enzymatic Cathepsin D (Cat D) FRET assay; assay type: biochemical; conditions: read-out: CatD IC50
Sequence of Cathepsin D (Cat D) (P07339 65-412, species assumed): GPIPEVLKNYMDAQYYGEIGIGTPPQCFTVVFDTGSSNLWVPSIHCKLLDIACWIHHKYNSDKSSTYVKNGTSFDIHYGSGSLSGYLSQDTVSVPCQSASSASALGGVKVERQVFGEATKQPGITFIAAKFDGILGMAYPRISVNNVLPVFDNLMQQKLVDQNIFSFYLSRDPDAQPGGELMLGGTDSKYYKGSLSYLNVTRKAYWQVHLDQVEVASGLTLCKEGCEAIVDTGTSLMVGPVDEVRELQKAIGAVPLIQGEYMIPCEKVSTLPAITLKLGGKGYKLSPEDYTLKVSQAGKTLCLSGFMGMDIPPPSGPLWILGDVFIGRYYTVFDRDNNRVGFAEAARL

Sequence of BACE (P56817 46-501, species assumed): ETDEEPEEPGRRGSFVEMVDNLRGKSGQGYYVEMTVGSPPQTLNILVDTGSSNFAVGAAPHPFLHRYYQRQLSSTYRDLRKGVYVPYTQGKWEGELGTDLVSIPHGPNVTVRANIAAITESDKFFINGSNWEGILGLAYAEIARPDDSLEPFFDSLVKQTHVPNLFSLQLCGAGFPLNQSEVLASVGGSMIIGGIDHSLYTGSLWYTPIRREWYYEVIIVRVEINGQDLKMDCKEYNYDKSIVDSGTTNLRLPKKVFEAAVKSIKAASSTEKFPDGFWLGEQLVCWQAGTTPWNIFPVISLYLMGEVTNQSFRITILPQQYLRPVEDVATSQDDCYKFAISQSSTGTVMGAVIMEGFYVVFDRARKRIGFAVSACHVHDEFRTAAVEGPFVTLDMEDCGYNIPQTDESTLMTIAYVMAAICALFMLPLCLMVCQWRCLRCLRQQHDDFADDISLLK
Sequence of Beta Secretase enzyme (BACE) (P56817 46-501): as the sequence (P56817 46-501, species assumed) above

| Structure (SMILES) | IC50 [1] [nM] | IC50 (BACE) [µM] | IC50 (Cathepsin D (Cat D)) [µM] |
| --- | --- | --- | --- |
| NC1=N[C@](c2cccc(NC(=O)c3ccc(Cl)cn3)c2)(C(F)F)[C@@H]2C[C@@H]2O1 [Example 264, N-(3-((1 S,5R,6S)-3-amino-5-(difluoromethyl)-2-oxa-4-azabicyclo[4.1.0]hept-3-en-5-yl)phenyl)-5-chloropicolinamide] | 35900 | > 15.6 | > 400 |
| Cc1cnc(C(=O)Nc2ccc(F)c([C@@]3(C(F)F)N=C(N)O[C@@H]4C[C@@H]43)c2)cn1 [Example 266, N-(3-((1R,5S,6R)-3-amino-5-(difluoromethyl)-2-oxa-4-azabicyclo[4.1.0]hept-3-en-5-yl)-4-fluorophenyl)-5-methylpyrazine-2-carboxamide] | 817 | 0.776 | 1160 |
| NC1=N[C@](CF)(c2cc(NC(=O)c3ccc(Cl)cn3)ccc2Cl)[C@H]2C[C@H]2O1 [Example 270, N-(3-((1R,5S,6R)-3-amino-5-(fluoromethyl)-2-oxa-4-azabicyclo[4.1.0]hept-3-en-5-yl)-4-chlorophenyl)-5-chloropicolinamide] | 66.9 | 0.0122 | 646 |
| COc1cnc(C(=O)Nc2ccc(Cl)c([C@@]3(CF)N=C(N)O[C@@H]4C[C@@H]43)c2)cn1 [Example 272] | 142 | 0.0274 | 1730 |
| COc1cnc(C(=O)Nc2ccc(Cl)c([C@]3(CF)N=C(N)O[C@H]4C[C@H]43)c2)cn1 [Example 273] | 36300 | 2.66 | 1970 |
| NC1=N[C@](CF)(c2cc(NC(=O)c3ccc(Br)cn3)ccc2Cl)[C@H]2C[C@H]2O1 [Example 274, N-(3-((1R,5S,6R)-3-amino-5-(fluoromethyl)-2-oxa-4-azabicyclo[4.1.0]hept-3-en-5-yl)-4-chlorophenyl)-5-bromopicolinamide] | 32.2 | 0.012 | 538 |
| NC1=N[C@@](CF)(c2cc(NC(=O)c3ccc(Br)cn3)ccc2Cl)[C@@H]2C[C@@H]2O1 [Example 275, N-(3-((1S,5R,6S)-3-amino-5-(fluoromethyl)-2-oxa-4-azabicyclo[4.1.0]hept-3-en-5-yl)-4-chlorophenyl)-5-bromopicolinamide] | 3600 | 0.906 | 1130 |
| N#Cc1ccc(C(=O)Nc2ccc(Cl)c([C@@]3(CF)N=C(N)O[C@@H]4C[C@@H]43)c2)nc1 [Example 277, N-(3-((1R,5S,6R)-3-amino-5-(fluoromethyl)-2-oxa-4-azabicyclo[4.1.0]hept-3-en-5-yl)-4-chlorophenyl)-5-cyanopicolinamide] | 56.8 | 0.0192 | 1560 |
| N#Cc1ccc(C(=O)Nc2ccc(Cl)c([C@]3(CF)N=C(N)O[C@H]4C[C@H]43)c2)nc1 [Example 278, N-(3-((1 S,5R,6S)-3-amino-5-(fluoromethyl)-2-oxa-4-azabicyclo[4.1.0]hept-3-en-5-yl)-4-chlorophenyl)-5-cyanopicolinamide] | 9510 | 2.64 | 904 |
| C#CCOc1cnc(C(=O)Nc2ccc(Cl)c([C@@]3(CF)N=C(N)O[C@@H]4C[C@@H]43)c2)cn1 [Example 279, N-(3-((1R,5S,6R)-3-amino-5-(fluoromethyl)-2-oxa-4-azabicyclo[4.1.0]hept-3-en-5-yl)-4-chlorophenyl)-5-(prop-2-yn-1-yloxy)pyrazine-2-carboxamide] | 5.6 | 0.0086 | 124 |
| C#CCOc1cnc(C(=O)Nc2ccc(Cl)c([C@]3(CF)N=C(N)O[C@H]4C[C@H]43)c2)cn1 [Example 280, N-(3-((1S,5R,6S)-3-amino-5-(fluoromethyl)-2-oxa-4-azabicyclo[4.1.0]hept-3-en-5-yl)-4-chlorophenyl)-5-(prop-2-yn-1-yloxy)pyrazine-2-carboxamide] | 4780 | 2.89 | 1470 |
| COc1ccc(C(=O)Nc2ccc(Cl)c([C@@]3(CF)N=C(N)O[C@@H]4C[C@@H]43)c2)nc1 [Example 282, N-(3-((1R,5S,6R)-3-amino-5-(fluoromethyl)-2-oxa-4-azabicyclo[4.1.0]hept-3-en-5-yl)-4-chlorophenyl)-5-methoxypicolinamide] | 196 | 0.0243 | 650 |
| COc1cnc(C(=O)Nc2ccc(Cl)c([C@@]3(CF)N=C(N)O[C@@H]4C[C@@H]43)c2)c(Cl)c1 [Example 284, N-(3-((1R,5S,6R)-3-amino-5-(fluoromethyl)-2-oxa-4-azabicyclo[4.1.0]hept-3-en-5-yl)-4-chlorophenyl)-3-chloro-5-methoxypicolinamide] | 122 | 0.0149 | 752 |
| CC#CCOc1cnc(C(=O)Nc2ccc(Cl)c([C@@]3(CF)N=C(N)O[C@@H]4C[C@@H]43)c2)cn1 [Example 285, N-(3-((1R,5S,6R)-3-amino-5-(fluoromethyl)-2-oxa-4-azabicyclo[4.1.0]hept-3-en-5-yl)-4-chlorophenyl)-5-(but-2-yn-1-yloxy)pyrazine-2-carboxamide] | 2.2 | 0.0006 | 1830 |
| NC1=N[C@@](c2cc(NC(=O)c3cccc(Cl)n3)ccc2F)(C(F)F)[C@H]2C[C@H]2O1 [Example 286, N-(3-((1R,5S,6R)-3-amino-5-(difluoromethyl)-2-oxa-4-azabicyclo[4.1.0]hept-3-en-5-yl)-4-fluorophenyl)-6-chloropicolinamide] | 1570 | 1.12 | 725 |
| NC1=N[C@@](c2cc(NC(=O)c3cc(Cl)ccn3)ccc2F)(C(F)F)[C@H]2C[C@H]2O1 [Example 287, N-(3-((1R,5S,6R)-3-amino-5-(difluoromethyl)-2-oxa-4-azabicyclo[4.1.0]hept-3-en-5-yl)-4-fluorophenyl)-4-chloropicolinamide] | 1930 | 2.11 | 1630 |
| CC(C)c1cccnc1C(=O)Nc1ccc(F)c([C@@]2(C(F)F)N=C(N)O[C@@H]3C[C@@H]32)c1 [Example 288, N-(3-((1R,5S,6R)-3-amino-5-(difluoromethyl)-2-oxa-4-azabicyclo[4.1.0]hept-3-en-5-yl)-4-fluorophenyl)-3-isopropylpicolinamide] | 3340 | 2.22 | 1260 |
| CC(C)c1cc(Cl)cnc1C(=O)Nc1ccc(F)c([C@@]2(C(F)F)N=C(N)O[C@@H]3C[C@@H]32)c1 [Example 289, N-(3-((1R,5S,6R)-3-amino-5-(difluoromethyl)-2-oxa-4-azabicyclo[4.1.0]hept-3-en-5-yl)-4-fluorophenyl)-5-chloro-3-isopropylpicolinamide] | 305 | 0.116 | 700 |
| NC1=N[C@@](c2cc(NC(=O)c3ncc(Br)cc3C(F)F)ccc2F)(C(F)F)[C@H]2C[C@H]2O1 [Example 290, N-(3-((1R,5S,6R)-3-amino-5-(difluoromethyl)-2-oxa-4-azabicyclo[4.1.0]hept-3-en-5-yl)-4-fluorophenyl)-5-bromo-3-(difluoromethyl) picolinamide] | 14.1 | 0.0222 | 252 |
| NC1=N[C@@](c2cc(NC(=O)c3ccc(-c4ccccc4)cn3)ccc2F)(C(F)F)[C@H]2C[C@H]2O1 [Example 291, N-(3-((1R,5S,6R)-3-amino-5-(difluoromethyl)-2-oxa-4-azabicyclo[4.1.0]hept-3-en-5-yl)-4-fluorophenyl)-5-phenylpicolinamide] | 1140 | 1.87 | 148 |
